Experimental data from patent publication US20220380378A1 (ESSA Pharma, Inc., priority 2021, published 2022).

Legend:
androgen receptor (AR) = molecular target: T1, androgen receptor (AR) (Homo sapiens, UniProt P10275, T878A); assay: Androgen-induced PSA (6.1 kb)-luciferase reporter assay in LNCaP cells (R1881 1 nM); format: cell-based; parameters: endogenous in cells; host or cells: LNCaP; settings: 24 h, read-out: PSA-Luc IC50 Range
T1 sequence (P10275 1-920 T878A): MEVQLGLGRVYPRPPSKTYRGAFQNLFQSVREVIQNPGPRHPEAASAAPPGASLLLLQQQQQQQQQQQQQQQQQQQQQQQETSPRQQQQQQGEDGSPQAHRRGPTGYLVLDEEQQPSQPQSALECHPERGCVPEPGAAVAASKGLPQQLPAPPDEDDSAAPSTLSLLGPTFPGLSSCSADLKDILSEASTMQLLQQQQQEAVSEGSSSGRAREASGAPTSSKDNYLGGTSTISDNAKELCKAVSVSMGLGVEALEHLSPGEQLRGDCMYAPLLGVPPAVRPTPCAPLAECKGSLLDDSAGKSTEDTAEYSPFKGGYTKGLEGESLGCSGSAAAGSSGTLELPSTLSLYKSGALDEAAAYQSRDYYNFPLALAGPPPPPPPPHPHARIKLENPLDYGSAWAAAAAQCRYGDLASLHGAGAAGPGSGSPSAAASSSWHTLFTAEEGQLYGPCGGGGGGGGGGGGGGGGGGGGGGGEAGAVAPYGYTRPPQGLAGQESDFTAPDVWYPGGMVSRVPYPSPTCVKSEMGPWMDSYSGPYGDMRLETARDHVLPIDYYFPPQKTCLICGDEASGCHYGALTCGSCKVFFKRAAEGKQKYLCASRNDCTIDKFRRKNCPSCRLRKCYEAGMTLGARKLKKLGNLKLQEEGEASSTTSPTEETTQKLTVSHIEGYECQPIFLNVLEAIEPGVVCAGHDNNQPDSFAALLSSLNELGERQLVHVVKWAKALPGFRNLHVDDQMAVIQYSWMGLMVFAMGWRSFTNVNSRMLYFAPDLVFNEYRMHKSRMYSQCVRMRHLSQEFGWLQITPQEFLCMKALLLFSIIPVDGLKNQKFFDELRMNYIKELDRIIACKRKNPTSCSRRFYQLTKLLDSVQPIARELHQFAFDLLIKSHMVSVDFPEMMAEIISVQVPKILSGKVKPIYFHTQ
Outline: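 LNCaP cells transiently transfected with PSA (6.1 kb)-luciferase for 24 h, pretreated 1 h with compound or DMSO, then stimulated with 1 nM R1881 for 24 h. Firefly luciferase in lysates normalized to protein content; IC50 relative to R1881-induced vehicle activity.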

[1] = Microsomal stability assay, liver microsome half-life (monkey); format: in vitro ADME; settings: pH 7.4; monkey liver microsomes 0.5 mg/mL, 1 μM compound, 37° C.; read-out: Liver microsome T1/2 Monkey
Text: (§1) Microsomal Stability Assay: Microsomal stability assay is a widely used in vitro model to characterize the metabolic conversion by phase I enzymes, such as cytochrome P450 (CYP) enzymes. Since metabolism is known to be highly variable in different species, microsomal stability assay is commonly run in multiple species. Metabolic stability of testing compound can be evaluated using human, rat, mouse, or other animal liver or intestine microsomes to predict intrinsic clearance.
(§2) The assay was carried out in 96-well microtiter plates at 37° C. Reaction mixtures (25 μL) contained a final concentration of 1 μM test compound, 0.5 mg/mL liver microsomes protein, and 1 mM NADPH and/or 1 mM UDPGA (with alamethicin) in 100 mM potassium phosphate, pH 7.4 buffer with 3 mM MgCl2. The incubation was done with N=1, but duplicate incubation at each time point can be prepared if necessary. At each of the time points (for example, 0, 15, 30, and 60 minutes), 150 μL of quench solution (100% acetonitrile with 0.1% formic acid) with internal standard was transferred to each well. Besides the zero minute controls, mixtures containing the same components except the NADPH can also be prepared as the negative control. Verapamil was included as a positive control to verify assay performance. Plates were sealed, vortexed, and centrifuged at 4° C. for 15 minutes at 4000 rpm. The supernatant is transferred to fresh plates for LC/MS/MS analysis.
(§3) Summarized conditions: [Compound]=1 μM, [LM]=0.5 mg/mL, [NADPH]=1 mM and/or [UDPGA]=1 mM, Buffer=100 mM Potassium Phosphate, pH 7.4 with 3 mM MgCl2, Time=0, 15, 30, and 60 min, and Temperature=37° C.
(§4) All samples were analyzed on LC/MS/MS using an AB Sciex API 4000 instrument, coupled to a Shimadzu LC-20AD LC Pump system. Analytical samples were separated using a Waters Atlantis T3 dC18 reverse phase HPLC column (20 mm×2.1 mm) at a flow rate of 0.5 mL/min. The mobile phase consisted of 0.1% formic acid in water (solvent A) and 0.1% formic acid in 100% acetonitrile (solvent B).
(§5) The extent of metabolism is calculated as the disappearance of the test compound, compared to the 0-min time incubation. Initial rates are calculated for the compound concentration and used to determine half-life (t½).

[2] = Microsomal stability assay, liver microsome half-life (rat); format: in vitro ADME; settings: pH 7.4; rat liver microsomes 0.5 mg/mL, 1 μM compound, 37° C.; read-out: Liver microsome T1/2 Rat
Text: as §1, §2, §3, §4
(§6) The extent of metabolism is calculated as the disappearance of the test compound, compared to the 0-min time incubation. Initial rates are calculated for the compound concentration and used to determine half-life (t½). […]

[3] = Microsomal stability assay, liver microsome half-life (mouse); format: in vitro ADME; settings: pH 7.4; mouse liver microsomes 0.5 mg/mL, 1 μM compound, 37° C.; read-out: Liver microsome T1/2 Mouse
Text: as §1, §2, §3, §4, §6

[4] = Microsomal stability assay, liver microsome half-life (dog); format: in vitro ADME; settings: pH 7.4; dog liver microsomes 0.5 mg/mL, 1 μM compound, 37° C.; read-out: Liver microsome T1/2 Dog
Text: as §1, §2, §3, §4, §5

[5] = Microsomal stability assay, liver microsome half-life (human); format: in vitro ADME; settings: pH 7.4; human liver microsomes 0.5 mg/mL, 1 μM compound, 37° C.; read-out: Liver microsome T1/2 Human
Text: as §1, §2, §3, §4, §6

Compound	IC50 (androgen receptor (AR))	half-life at 1 μM [1]	half-life at 1 μM [2]	half-life at 1 μM [3]	half-life at 1 μM [4]	half-life at 1 μM [5]
CC(C)(c1ccc(-c2ccc3c(c2)CCN(S(C)(=O)=O)C3)cc1)c1cc(Cl)c(OCCCl)c(C#N)c1 [Compound A114]	500 to 2000 nM	> 2 h	> 2 h	> 2 h	1.05 h	> 2 h
CS(=O)(=O)Nc1nccc(COc2ccc3c(ccn3-c3cc(Cl)c(OCCCl)c(C#N)c3)c2)n1 [Compound A36, N-(4-(((1-(3-chloro-4-(2-chloroethoxy)-5-cyanophenyl)-1H-indol-5-yl)oxy)methyl)pyrimidin-2-yl)methanesulfonamide]	< 500 nM	> 2 h	> 2 h	> 2 h	> 2 h	> 2 h
CC(C)(c1ccc(-c2ccc3nc(NS(C)(=O)=O)cnc3c2)cc1)c1cc(Cl)c(OCCCl)c(C#N)c1 [Compound A107, N-(6-(4-(2-(3-chloro-4-(2-chloroethoxy)-5-cyanophenyl)propan-2-yl)phenyl)quinoxalin-2-yl)methanesulfonamide]	< 500 nM	> 2 h	> 2 h	> 2 h	> 2 h	> 2 h
C[C@@H](Oc1ccc(C(C)(C)c2cc(Cl)c(OCCCl)c(C#N)c2)cc1)C12CC(NS(C)(=O)=O)(C1)C2 [Compound A264]	500 to 2000 nM	0.8 h	> 2 h	> 2 h	> 2 h	> 2 h
CC(C)(c1ccc(-c2cnc3nc(NS(C)(=O)=O)ccc3c2)cc1)c1cc(Cl)c(OCCCl)c(C#N)c1 [Compound A194]	< 500 nM	> 2 h	> 2 h	> 2 h	1.48 h	1.97 h
CS(=O)(=O)NC12CC(COc3ccc4c(c3)CCC4c3cc(Cl)c(OCCCl)c(C#N)c3)(C1)C2 (stereo not drawn) [Compound A246]	500 to 2000 nM	1.3 h	1.08 h	> 2 h	1.32 h	1.48 h
CS(=O)(=O)NC1CCN(Cc2ccc3c(ccn3-c3cc(Cl)c(OCCCl)c(C#N)c3)c2)CC1(F)F (stereo not drawn) [Compound A239]	500 to 2000 nM	0.65 h	> 2 h	> 2 h	> 2 h	1.88 h
CC(C)(c1ccc(-c2ccn3nc(NS(C)(=O)=O)nc3c2)cc1)c1cc(Cl)c(OCCCl)c(C#N)c1 [Compound A113]	500 to 2000 nM	> 2 h	> 2 h	> 2 h	> 2 h	1.93 h
CC(C)(c1ccc(-c2ccc3nc(NS(C)(=O)=O)sc3c2)cc1)c1cc(Cl)c(OCCCl)c(C#N)c1 [Compound A274]	< 500 nM	> 2 h	> 2 h	> 2 h	> 2 h	> 2 h
CS(=O)(=O)Nc1ncc2cc(-c3ccc(Oc4cc(Cl)c(OCCCl)c(C#N)c4)cc3)ccc2n1 [Compound A116, N-(6-(4-(3-chloro-4-(2-chloroethoxy)-5-cyanophenoxy)phenyl)quinazolin-2-yl)methanesulfonamide]	500 to 2000 nM	> 2 h	> 2 h	> 2 h	> 2 h	> 2 h
CS(=O)(=O)Nc1nccc(COc2ccc3c(c2)CCC3c2cc(Cl)c(OCCCl)c(C#N)c2)n1 (stereo not drawn) [Compound A35, N-(4-(((1-(3-chloro-4-(2-chloroethoxy)-5-cyanophenyl)-2,3-dihydro-1H-inden-5-yl)oxy)methyl)pyrimidin-2-yl)methanesulfonamide]	500 to 2000 nM	> 2 h	> 2 h	> 2 h	> 2 h	> 2 h
CC(C)(c1ccc(-c2ccc3nc(NS(C)(=O)=O)ncc3c2)cc1)c1cc(Cl)c(OCCCl)c(C#N)c1 [Compound A51, N-[6-(4-{2-[3-chloro-4-(2-chloroethoxy)-5-cyanophenyl]propan-2-yl}phenyl)quinazolin-2-yl]methanesulfonamide]	< 500 nM	> 2 h	> 2 h	> 2 h	1.78 h	> 2 h
CC(C)(c1ccc(OCC23CC(NS(C)(=O)=O)(C2)C3)cc1)c1cc(Cl)c(OCCCl)c(C#N)c1 [Compound A132, N-(3-((4-(2-(3-chloro-4-(2-chloroethoxy)-5-cyanophenyl)propan-2-yl)phenoxy)methyl)bicyclo[1.1.1]pentan-1-yl)methanesulfonamide]	500 to 2000 nM	0.95 h	1.62 h	> 2 h	> 2 h	> 2 h
CC(Oc1ccc2c(ccn2-c2cc(Cl)c(OCCCl)c(C#N)c2)c1)C12CC(NS(C)(=O)=O)(C1)C2 (stereo not drawn) [Compound A180]	500 to 2000 nM	0.75 h	> 2 h	> 2 h	0.967 h	> 2 h
CC(C)(c1ccc(-c2ccc3nc(NS(C)(=O)=O)oc3c2)cc1)c1cc(Cl)c(OCCCl)c(C#N)c1 [Compound A254]	500 to 2000 nM	> 2 h	> 2 h	> 2 h	> 2 h	> 2 h
CS(=O)(=O)Nc1cnc2cc(-c3ccc4c(c3)CCC4c3cc(Cl)c(OCCCl)c(C#N)c3)ccc2n1 (stereo not drawn) [Compound A270]	500 to 2000 nM	> 2 h	> 2 h	> 2 h	> 2 h	> 2 h
CS(=O)(=O)NC1CCN(CCc2ccc3c(ccn3-c3cc(Cl)c(OCCCl)c(C#N)c3)c2)CC1 [Compound A187]	500 to 2000 nM	1.47 h	> 2 h	> 2 h	> 2 h	> 2 h
